Experimental data: paper PMC10879502, “Linking ATP and allosteric sites to achieve superadditive binding with bivalent EGFR kinase inhibitors” (Communications Chemistry, 2024)

Tests used:
PAK7 = PAK7 (Homo sapiens, UniProt Q9P286); assay: KINOMEscan; format: binding; conditions: 1 μM
NEK9 = NEK9 (Homo sapiens, UniProt Q8TD19); assay: KINOMEscan; format: binding; conditions: 1 μM
AMPK-alpha2 = AMPK-alpha2 (Homo sapiens, UniProt P54646); assay: KINOMEscan; format: binding; conditions: 1 μM
JNK1 = biological target: T1, JNK1 (Homo sapiens, UniProt P45983); assay: KINOMEscan; format: binding; conditions: 1 μM
T1 construct: purchased Eurofins DiscoverX (KINOMEscan)

[1] = biological target: RSK2(Kin.Dom.2-C-terminal) (Homo sapiens, UniProt P51812); assay: KINOMEscan; format: binding; conditions: 1 μM
CHEK1 = CHEK1 (Homo sapiens, UniProt O14757); assay: KINOMEscan; format: binding; conditions: 1 μM
WEE2 = WEE2 (Homo sapiens, UniProt P0C1S8); assay: KINOMEscan; format: binding; conditions: 1 μM
TYRO3 = TYRO3 (Homo sapiens, UniProt Q06418); assay: KINOMEscan; format: binding; conditions: 1 μM
FLT3(ITD+F691L) = assay: KINOMEscan; format: binding; conditions: 1 μM
[2] = biological target: T2, JAK1(JH1domain-catalytic) (Homo sapiens, UniProt P23458); assay: KINOMEscan; format: binding; conditions: 1 μM
T2 construct: JAK1(JH1domain-catalytic); purchased Eurofins DiscoverX (KINOMEscan)

PLK2 = PLK2 (Homo sapiens, UniProt Q9NYY3); assay: KINOMEscan; format: binding; conditions: 1 μM
MYLK2 = biological target: T3, MYLK2 (Homo sapiens, UniProt Q9H1R3); assay: KINOMEscan; format: binding; conditions: 1 μM
T3 construct: purchased Eurofins DiscoverX Corporation

LATS1 = biological target: T4, LATS1 (Homo sapiens, UniProt O95835); assay: KINOMEscan; format: binding; conditions: 1 μM
T4 construct: purchased Eurofins DiscoverX Corporation

LCK = biological target: T5, LCK (Homo sapiens, UniProt P06239); assay: KINOMEscan; format: binding; conditions: 1 μM
T5 construct: purchased Eurofins DiscoverX Corporation

CAMKK1 = biological target: T6, CAMKK1 (Homo sapiens, UniProt Q8N5S9); assay: KINOMEscan; format: binding; conditions: 1 μM
T6 construct: purchased Eurofins DiscoverX Corporation (KINOMEscan)

PYK2 = PYK2 (Homo sapiens, UniProt Q14289); assay: KINOMEscan; format: binding; conditions: 1 μM
EPHA5 = EPHA5 (Homo sapiens, UniProt P54756); assay: KINOMEscan; format: binding; conditions: 1 μM
EGFR(T790M) = EGFR(T790M) (Homo sapiens, UniProt P00533, T790M); assay: KINOMEscan; format: binding; conditions: 1 μM
HCK = biological target: T7, HCK (Homo sapiens, UniProt P08631); assay: KINOMEscan; format: binding; conditions: 1 μM
T7 construct: purchased Eurofins DiscoverX Corporation

MAPKAPK2 = biological target: T8, MAPKAPK2 (Homo sapiens, UniProt P49137); assay: KINOMEscan; format: binding; conditions: 1 μM
T8 construct: purchased Eurofins DiscoverX Corporation

PIK3CA(H1047L) = PIK3CA(H1047L) (Homo sapiens, UniProt P42336, H1047L); assay: KINOMEscan; format: binding; conditions: 1 μM
[3] = biological target: T9, ABL1(Q252H)-phosphorylated (Homo sapiens, UniProt P00519, Q252H); assay: KINOMEscan; format: binding; conditions: 1 μM
T9 construct: purchased Eurofins DiscoverX Corporation

ACVR1 = biological target: T10, ACVR1 (Homo sapiens, UniProt Q04771); assay: KINOMEscan; format: binding; conditions: 1 μM
T10 construct: purchased Eurofins DiscoverX Corporation

MARK3 = biological target: T11, MARK3 (Homo sapiens, UniProt P27448); assay: KINOMEscan; format: binding; conditions: 1 μM
T11 construct: purchased Eurofins DiscoverX Corporation

EPHA2 = EPHA2 (Homo sapiens, UniProt P29317); assay: KINOMEscan; format: binding; conditions: 1 μM
ACVR2A = ACVR2A (Homo sapiens, UniProt P27037); assay: KINOMEscan; format: binding; conditions: 1 μM
PKN2 = PKN2 (Homo sapiens, UniProt Q16513); assay: KINOMEscan; format: binding; conditions: 1 μM
MET = biological target: T12, MET (Homo sapiens, UniProt P08581); assay: KINOMEscan; format: binding; conditions: 1 μM
T12 construct: purchased Eurofins DiscoverX Corporation

INSRR = biological target: T13, INSRR (Homo sapiens, UniProt P14616); assay: KINOMEscan; format: binding; conditions: 1 μM
T13 construct: purchased Eurofins DiscoverX (KINOMEscan)

YSK4 = YSK4 (Homo sapiens, UniProt Q56UN5); assay: KINOMEscan; format: binding; conditions: 1 μM
KIT(A829P) = biological target: T14, KIT(A829P) (Homo sapiens, UniProt P10721, A829P); assay: KINOMEscan; format: binding; conditions: 1 μM
T14 construct: purchased Eurofins DiscoverX (KINOMEscan)

ABL2 = biological target: T15, ABL2 (Homo sapiens, UniProt P42684); assay: KINOMEscan; format: binding; conditions: 1 μM
T15 construct: purchased Eurofins DiscoverX Corporation

ZAK = ZAK (Homo sapiens, UniProt Q9NYL2); assay: KINOMEscan; format: binding; conditions: 1 μM
[4] = system: H1975 cells (L858R/T790M); assay: MTT antiproliferative activity assay; format: cell-based, human
Method: (§1) Cells were dosed with inhibitors to a final DMSO 0.5% in triplicate for 37 °C for 72 h. Cellular inhibition of growth was assessed by MTT viability assay according to the manufactures protocol (OZ Biosciences). […] Ba/F3 cells were all cultured in RPMI1640 media with 10% fetal bovine serum and 1% penicillin and streptomycin. The Ba/F3 cell lines were tested negative for Mycoplasma using Mycoplasma Plus PCR Primer Set (Agilent) and were passaged and/or used for no longer than 4 weeks for all experiments. Assay reagents were purchased from MilliporeSigma (Cat# R7017-5G). Ba/F3 cells were plated and treated with increasing concentrations of inhibitors in triplicate for 72 h. Compounds were dispensed using the Tecan D300e Digital Dispenser. […] All experiments were repeated at least 3 times and values were reported as an average with standard deviation.

[5] = system: HCC827 cells (exon 19 del); assay: MTT antiproliferative activity assay; format: cell-based, human
Method: as §1

TNK1 = biological target: T16, TNK1 (Homo sapiens, UniProt Q13470); assay: KINOMEscan; format: binding; conditions: 1 μM
T16 construct: purchased Eurofins DiscoverX Corporation

NIM1 = NIM1 (Homo sapiens, UniProt Q8IY84); assay: KINOMEscan; format: binding; conditions: 1 μM

Chain of EPHA5 (P54756 25-1037): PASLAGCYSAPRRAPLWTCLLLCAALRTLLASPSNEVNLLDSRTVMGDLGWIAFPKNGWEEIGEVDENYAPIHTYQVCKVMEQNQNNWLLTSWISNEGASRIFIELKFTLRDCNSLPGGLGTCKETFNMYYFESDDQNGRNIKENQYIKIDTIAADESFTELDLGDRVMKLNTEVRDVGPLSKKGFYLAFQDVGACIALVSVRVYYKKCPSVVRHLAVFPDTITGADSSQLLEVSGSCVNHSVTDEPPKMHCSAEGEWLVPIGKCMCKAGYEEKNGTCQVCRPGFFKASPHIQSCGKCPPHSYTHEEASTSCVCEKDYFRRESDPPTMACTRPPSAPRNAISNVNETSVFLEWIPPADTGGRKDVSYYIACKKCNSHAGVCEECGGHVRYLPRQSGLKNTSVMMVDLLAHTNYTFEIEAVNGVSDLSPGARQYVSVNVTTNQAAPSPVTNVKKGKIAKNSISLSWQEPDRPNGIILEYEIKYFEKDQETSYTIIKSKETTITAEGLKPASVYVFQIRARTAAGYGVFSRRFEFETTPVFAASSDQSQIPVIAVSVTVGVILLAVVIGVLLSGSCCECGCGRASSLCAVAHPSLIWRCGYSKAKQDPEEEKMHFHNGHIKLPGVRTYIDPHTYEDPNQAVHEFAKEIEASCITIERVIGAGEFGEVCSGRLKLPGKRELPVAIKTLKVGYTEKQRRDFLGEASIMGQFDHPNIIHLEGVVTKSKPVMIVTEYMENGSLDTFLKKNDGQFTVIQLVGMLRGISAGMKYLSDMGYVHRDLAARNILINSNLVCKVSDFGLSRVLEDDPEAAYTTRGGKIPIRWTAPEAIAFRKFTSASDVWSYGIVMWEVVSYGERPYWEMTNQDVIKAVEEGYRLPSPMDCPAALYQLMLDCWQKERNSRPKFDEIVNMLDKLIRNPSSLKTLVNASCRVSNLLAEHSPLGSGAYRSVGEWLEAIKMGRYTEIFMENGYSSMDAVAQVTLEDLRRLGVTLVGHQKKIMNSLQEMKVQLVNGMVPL
Chain of AMPK-alpha2 (P54646 whole entry): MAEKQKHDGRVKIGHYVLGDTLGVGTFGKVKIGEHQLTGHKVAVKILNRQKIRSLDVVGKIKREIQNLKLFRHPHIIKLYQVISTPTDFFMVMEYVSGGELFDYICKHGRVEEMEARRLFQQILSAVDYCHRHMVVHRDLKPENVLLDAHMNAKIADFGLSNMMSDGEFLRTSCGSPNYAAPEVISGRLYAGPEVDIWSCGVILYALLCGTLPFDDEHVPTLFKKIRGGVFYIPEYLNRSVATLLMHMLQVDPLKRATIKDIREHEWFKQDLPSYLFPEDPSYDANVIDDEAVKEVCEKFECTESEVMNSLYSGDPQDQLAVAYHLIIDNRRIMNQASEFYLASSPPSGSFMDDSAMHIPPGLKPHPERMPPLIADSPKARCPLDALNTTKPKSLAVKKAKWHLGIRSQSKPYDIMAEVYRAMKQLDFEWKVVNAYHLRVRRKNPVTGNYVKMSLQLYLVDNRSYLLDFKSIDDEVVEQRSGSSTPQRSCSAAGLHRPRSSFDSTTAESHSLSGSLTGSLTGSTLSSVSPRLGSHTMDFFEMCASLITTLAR
Chain of EPHA2 (P29317 24-976): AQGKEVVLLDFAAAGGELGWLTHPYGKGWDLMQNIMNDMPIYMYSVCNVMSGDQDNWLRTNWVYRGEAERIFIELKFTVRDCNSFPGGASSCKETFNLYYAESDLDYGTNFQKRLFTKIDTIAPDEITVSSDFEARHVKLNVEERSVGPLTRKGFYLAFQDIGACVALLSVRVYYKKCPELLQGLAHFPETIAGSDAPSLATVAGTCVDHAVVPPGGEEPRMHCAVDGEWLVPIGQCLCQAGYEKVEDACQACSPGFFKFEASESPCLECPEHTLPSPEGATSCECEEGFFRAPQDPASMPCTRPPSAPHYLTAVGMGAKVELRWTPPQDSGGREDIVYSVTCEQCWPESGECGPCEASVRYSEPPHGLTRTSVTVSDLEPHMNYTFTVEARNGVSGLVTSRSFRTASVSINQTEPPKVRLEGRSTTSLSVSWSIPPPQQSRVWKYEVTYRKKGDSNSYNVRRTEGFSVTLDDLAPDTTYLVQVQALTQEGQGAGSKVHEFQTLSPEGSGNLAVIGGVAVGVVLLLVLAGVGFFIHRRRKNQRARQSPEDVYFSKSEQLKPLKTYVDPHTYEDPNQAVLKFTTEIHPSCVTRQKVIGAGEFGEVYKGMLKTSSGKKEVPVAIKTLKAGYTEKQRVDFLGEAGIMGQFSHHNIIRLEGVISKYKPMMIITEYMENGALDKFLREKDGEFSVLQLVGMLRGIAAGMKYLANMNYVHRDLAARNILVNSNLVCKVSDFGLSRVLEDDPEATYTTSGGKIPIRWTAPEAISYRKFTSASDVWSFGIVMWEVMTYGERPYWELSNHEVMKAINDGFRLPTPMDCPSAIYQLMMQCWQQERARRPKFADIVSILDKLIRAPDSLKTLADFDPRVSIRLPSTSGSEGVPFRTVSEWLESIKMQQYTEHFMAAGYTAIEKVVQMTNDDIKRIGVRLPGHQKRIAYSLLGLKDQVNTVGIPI
Chain of PKN2 (Q16513 whole entry): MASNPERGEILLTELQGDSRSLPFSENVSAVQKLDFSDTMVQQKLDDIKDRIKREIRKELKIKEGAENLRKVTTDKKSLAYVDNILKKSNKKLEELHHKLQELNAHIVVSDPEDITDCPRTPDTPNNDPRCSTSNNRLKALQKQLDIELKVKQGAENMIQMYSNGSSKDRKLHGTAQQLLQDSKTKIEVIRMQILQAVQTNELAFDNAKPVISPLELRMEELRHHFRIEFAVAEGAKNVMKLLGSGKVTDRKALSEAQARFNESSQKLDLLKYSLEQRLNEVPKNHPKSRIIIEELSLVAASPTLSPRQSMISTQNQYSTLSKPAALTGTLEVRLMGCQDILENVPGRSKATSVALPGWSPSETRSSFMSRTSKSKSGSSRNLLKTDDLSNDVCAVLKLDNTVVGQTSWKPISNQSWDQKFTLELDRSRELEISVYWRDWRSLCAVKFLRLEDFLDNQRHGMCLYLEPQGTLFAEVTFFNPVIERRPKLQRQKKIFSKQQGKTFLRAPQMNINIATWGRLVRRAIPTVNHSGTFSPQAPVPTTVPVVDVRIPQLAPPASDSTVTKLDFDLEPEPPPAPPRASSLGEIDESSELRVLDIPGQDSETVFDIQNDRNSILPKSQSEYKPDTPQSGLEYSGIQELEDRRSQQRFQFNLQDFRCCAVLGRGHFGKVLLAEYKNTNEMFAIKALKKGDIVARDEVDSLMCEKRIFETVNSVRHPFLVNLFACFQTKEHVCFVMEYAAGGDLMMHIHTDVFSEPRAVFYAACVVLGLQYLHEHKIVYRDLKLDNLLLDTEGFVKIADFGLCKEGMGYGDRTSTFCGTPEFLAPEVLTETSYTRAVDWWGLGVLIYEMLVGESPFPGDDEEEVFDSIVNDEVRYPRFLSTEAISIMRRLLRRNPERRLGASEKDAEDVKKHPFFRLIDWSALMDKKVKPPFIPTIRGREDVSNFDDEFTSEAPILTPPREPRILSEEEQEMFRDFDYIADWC
T14 sequence (P10721 26-976 A829P): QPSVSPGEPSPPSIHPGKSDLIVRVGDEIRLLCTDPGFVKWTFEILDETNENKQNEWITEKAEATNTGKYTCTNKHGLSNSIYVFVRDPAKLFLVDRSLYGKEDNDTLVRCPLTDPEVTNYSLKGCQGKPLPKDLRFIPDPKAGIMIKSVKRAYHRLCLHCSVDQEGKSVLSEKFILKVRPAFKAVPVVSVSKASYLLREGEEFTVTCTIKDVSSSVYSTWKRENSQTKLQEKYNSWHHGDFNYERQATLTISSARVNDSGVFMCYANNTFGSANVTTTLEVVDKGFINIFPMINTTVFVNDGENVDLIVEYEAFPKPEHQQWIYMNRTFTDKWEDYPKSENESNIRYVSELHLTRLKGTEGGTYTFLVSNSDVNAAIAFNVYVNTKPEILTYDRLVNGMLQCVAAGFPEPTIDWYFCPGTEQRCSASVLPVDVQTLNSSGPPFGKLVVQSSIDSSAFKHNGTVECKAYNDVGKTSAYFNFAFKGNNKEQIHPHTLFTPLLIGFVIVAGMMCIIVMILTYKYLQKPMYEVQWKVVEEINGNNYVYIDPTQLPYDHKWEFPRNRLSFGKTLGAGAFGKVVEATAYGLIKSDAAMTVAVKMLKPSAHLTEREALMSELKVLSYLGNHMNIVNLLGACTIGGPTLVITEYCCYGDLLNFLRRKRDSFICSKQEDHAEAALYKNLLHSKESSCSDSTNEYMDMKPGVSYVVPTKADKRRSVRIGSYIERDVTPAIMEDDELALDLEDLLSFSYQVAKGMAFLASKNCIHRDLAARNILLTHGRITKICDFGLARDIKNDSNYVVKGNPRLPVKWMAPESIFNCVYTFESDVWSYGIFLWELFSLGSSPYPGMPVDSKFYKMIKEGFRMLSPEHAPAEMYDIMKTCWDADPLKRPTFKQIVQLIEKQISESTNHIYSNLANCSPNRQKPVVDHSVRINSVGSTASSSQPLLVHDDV
T6 sequence (Q8N5S9 whole entry): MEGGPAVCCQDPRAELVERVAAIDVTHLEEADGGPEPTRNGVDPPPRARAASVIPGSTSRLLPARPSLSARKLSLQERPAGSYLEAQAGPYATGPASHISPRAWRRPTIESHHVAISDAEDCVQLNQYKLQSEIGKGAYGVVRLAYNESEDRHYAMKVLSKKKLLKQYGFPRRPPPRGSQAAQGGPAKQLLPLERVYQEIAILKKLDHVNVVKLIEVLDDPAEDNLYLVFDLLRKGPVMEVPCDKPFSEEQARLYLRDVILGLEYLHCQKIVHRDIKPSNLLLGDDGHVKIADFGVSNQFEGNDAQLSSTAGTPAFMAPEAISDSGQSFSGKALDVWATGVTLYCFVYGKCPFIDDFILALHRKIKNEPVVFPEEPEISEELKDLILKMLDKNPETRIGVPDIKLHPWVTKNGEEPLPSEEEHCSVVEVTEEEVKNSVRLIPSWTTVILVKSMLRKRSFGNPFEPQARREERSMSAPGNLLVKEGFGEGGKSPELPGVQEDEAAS

**Q.** With `C=CC(=O)Nc1ccc(OC)c(Nc2cc(-c3[nH]c(CC)nc3-c3cccc(NC(=O)c4cccc5c4NC(=O)c4ccccc4N5)c3)ccn2)c1` [Compound 4] as the molecule, how does the POC (PAK7) read?
**A.** 77% of control

**Q.** And the POC (NEK9)?
**A.** 83% of control

**Q.** And the POC (AMPK-alpha2)?
**A.** 56% of control

**Q.** What about the POC (JNK1) of the same molecule?
**A.** 85% of control

**Q.** And the POC [1]?
**A.** 100% of control

**Q.** And the POC (CHEK1)?
**A.** 100% of control

**Q.** And the POC (WEE2)?
**A.** 98% of control

**Q.** And the POC (TYRO3)?
**A.** 32% of control

**Q.** And the POC (FLT3(ITD+F691L))?
**A.** 79% of control

**Q.** What about the POC [2] of the same molecule?
**A.** 91% of control

**Q.** What about the POC (PLK2) of the same molecule?
**A.** 100% of control

**Q.** What about the POC (MYLK2) of the same molecule?
**A.** 84% of control

**Q.** What about the POC (LATS1) of the same molecule?
**A.** 100% of control

**Q.** What about the POC (LCK) of the same molecule?
**A.** 7.7% of control

**Q.** And the POC (CAMKK1)?
**A.** 85% of control

**Q.** What about the POC (PYK2) of the same molecule?
**A.** 100% of control

**Q.** And the POC (EPHA5)?
**A.** 100% of control

**Q.** And the POC (EGFR(T790M))?
**A.** 12% of control

**Q.** What about the POC (HCK) of the same molecule?
**A.** 14% of control

**Q.** What about the POC (MAPKAPK2) of the same molecule?
**A.** 100% of control

**Q.** What about the POC (PIK3CA(H1047L)) of the same molecule?
**A.** 100% of control

**Q.** And the POC [3]?
**A.** 90% of control

**Q.** What about the POC (ACVR1) of the same molecule?
**A.** 96% of control

**Q.** What about the POC (MARK3) of the same molecule?
**A.** 100% of control

**Q.** What about the POC (EPHA2) of the same molecule?
**A.** 100% of control

**Q.** What about the POC (ACVR2A) of the same molecule?
**A.** 77% of control

**Q.** What about the POC (PKN2) of the same molecule?
**A.** 100% of control

**Q.** And the POC (MET)?
**A.** 69% of control

**Q.** And the POC (INSRR)?
**A.** 87% of control

**Q.** What about the POC (YSK4) of the same molecule?
**A.** 88% of control

**Q.** What about the POC (KIT(A829P)) of the same molecule?
**A.** 56% of control

**Q.** What about the POC (ABL2) of the same molecule?
**A.** 92% of control

**Q.** What about the POC (ZAK) of the same molecule?
**A.** 87% of control

**Q.** And the “less potent than AZD9291” value ([4]; H1975)?
**A.** ~ 60 fold

**Q.** What about the antiproliferative active concentration ([4]; H1975, text) of the same molecule?
**A.** 100 to 500 nM

**Q.** And the “less potent than AZD9291” value ([5]; HCC827)?
**A.** ~ 60 fold

**Q.** And the antiproliferative active concentration ([5]; HCC827, text)?
**A.** 100 to 500 nM

**Q.** What about the POC (TNK1) of the same molecule?
**A.** 22% of control

**Q.** And the POC (NIM1)?
**A.** 78% of control
